In general, IC50 refers to the midpoint of a concentration-inhibition curve.

The values that follow come from PMC11414412, “Design and synthesis new indole-based aromatase/iNOS inhibitors with apoptotic antiproliferative activity” (Frontiers in Chemistry, 2024).

The subject of one experiment is Bax. Nature of the experiment: Bax activation assay. The conditions noted are these: lung (A-549) cancer cells, compound at IC50. Type of experiment: cell-based, human. The protocol:
Cells were obtained from American Type Culture Collection, cells were grown in RPMI 1640 containing 10% fetal bovine serum at 37°C, stimulated with the compounds to be tested for caspase8, and lysed with Cell Extraction Buffer. This lysate was diluted in Standard Diluent Buffer over the range of the assay and measured for human active caspase-8 content. […]
4.2.7. Bax activation assay
Bring all reagents, except the human Bax-α Standard, to room temperature for at least 30 minutes prior to opening. The human Bax-α Standard solution should not be left at room temperature for more than 10 minutes. All standards, controls and samples should be run in duplicate. Refer to the Assay Layout Sheet to determine the number of wells to be used and put any remaining wells with the desiccant back into the pouch and seal the ziploc. Store unused wells at 4 °C. Pipet 100 μL of Assay Buffer into the S0 (0 pg/mL standard) wells. Pipet 100 μL of Standards #1 through #6 into the appropriate wells. Pipet 100 μL of the Samples into the appropriate wells. Tap the plate gently to mix the contents. Seal the plate and incubate at room temperature on a plate shaker for 1 hour at ~500 rpm. Empty the contents of the wells and wash by adding 400 μL of wash solution to every well. Repeat the wash 4 more times for a total of 5 washes. After the final wash, empty or aspirate the wells and firmly tap the plate on a lint free paper towel to remove any remaining wash buffer.
Pipet 100 μL of yellow Antibody into each well, except the Blank. Seal the plate and incubate at room temperature on a plate shaker for 1 hour at ~500 rpm. Empty the contents of the wells and wash by adding 400 μL of wash solution to every well. Repeat the wash 4 more times for a total of 5 washes. After the final wash, empty or aspirate the wells and firmly tap the plate on a lint free paper towel to remove any remaining wash buffer. Add 100 μL of blue Conjugate to each well, except the Blank. Seal the plate and incubate at room temperature on a plate shaker for 30 minutes […]
Pipet 100 μL of Substrate Solution into each well. Incubate for 30 minutes at room temperature on a plate shaker at ~500 rpm. Pipet 100 μL Stop Solution to each well. Blank the plate reader against the Blank wells, read the optical density at 450 nm. Calculate the average net Optical Density (OD) bound for each standard and sample by subtracting the average Blank OD from the average OD for each standard and sample. Using linear graph paper, plot the Average Net OD for each standard versus Bax concentration in each standard. Approximate a straight line through the points.
The concentration of Bax in the unknowns can be determined by interpolation. […]

For a further experiment, the system named is Bcl-2. Nature of the experiment: Bcl-2 inhibition assay. Type of experiment: cell-based, human. The conditions noted are these: lung (A-549) cancer cells, compound at IC50. The protocol: 4.2.8. Bcl-2 inhibition assay
Mix all reagents thoroughly without foaming before use. Wash the microwells twice with approximately 300 μL Wash Buffer per well with thorough aspiration of microwell contents between washes. Take caution not to scratch the surface of the microwells. After the last wash, empty the wells and tap microwell strips on absorbent pad or paper towel to remove excess Wash Buffer. Use the microwell strips immediately after washing or place upside down on a wet absorbent paper for not longer than 15 minutes. […] Add 100 μL of Sample […]
Diluent in duplicate to all standard wells and to the blank wells. Prepare standard (1:2 dilution) in duplicate ranging from 32 ng/mL to 0.5 ng/mL. Add 100 μL of Sample Diluent, in duplicate, to the blank wells. Add 80 μL of Sample Diluent, in duplicate, to the sample wells. Add 20 μL of each Sample, in duplicate, to the designated wells. Add 50 μL of diluted biotin-conjugate to all wells, including the blank wells. Cover with a plate cover and incubate at room temperature, on a microplate shaker at 100 rpm if available, for 2 hours. Remove plate cover and empty the wells.
Wash microwell strips 3 times as described in step 2. Add 100 μL of diluted Streptavidin-HRP to all wells, including the blank wells. Cover with a plate cover and incubate at room temperature, on a microplate shaker at 100 rpm if available, for 1 hour. Remove plate cover and empty the wells.
Wash microwell strips 3 times as described in step 2. Proceed to the next step. Pipette 100 μl of mixed TMB Substrate Solution to all wells, including the blanks. Incubate the microwell strips at room temperature (18° to 25°C) for about 15 minutes, if available on a rotator set at 100 rpm.
Avoid direct exposure to intense light. The point, at which the substrate reaction is stopped, is often determined by the ELISA reader. Many ELISA readers record absorbance only up to 2.0
O.D. Therefore, the color development within individual microwells must be watched by the person running the assay and the substrate reaction stopped before positive wells are no longer properly detectable. Stop the enzyme reaction by quickly pipetting 100 μL of Stop Solution into each well, including the blank wells. It is important that the Stop Solution is spread quickly and uniformly throughout the microwells to completely inactivate the enzyme. Results must be read immediately after the Stop Solution is added or within one hour i f the microwell strips are stored at 2 - 8°C in the dark. Read absorbance of each microwell on a spectrophotometer using 450 nm as the primary wavelength.

In a further experiment the target is aromatase. Particulars: read-out: Aromatase inhibition IC50, cited from earlier work.

Where two headings read alike, the source gives them in different places.

Take `CN[C@@H]1C[C@H]2O[C@@](C)([C@@H]1OC)n1c3ccccc3c3c4c(c5c6ccccc6n2c5c31)C(=O)NC4` [Staurosporine, reference compound]: the “Bax Conc” value with Bax was determined as 288 ± 2 pg/mL. In the experiment with Bcl-2, the “Bcl-2 Conc” value is 1.00 ng/mL.

With `COc1ccc(S(=O)(=O)NCCc2c(C(c3ccc(O)cc3)c3[nH]c4ccccc4c3CCNS(=O)(=O)c3ccc(OC)cc3)[nH]c3ccccc23)cc1` [compound VIII], the IC50 at aromatase (bis-/tris-indole sulfonamide series, ref Pingaew et al., 2018) was 700 nM.

Consider `N#Cc1c(-c2ccccc2)[nH]c2ccccc12` [compound VII], for which, at aromatase (2-aryl indole series, ref Prior et al., 2017), the IC50 is 1610 nM.

In the case of `O=S(=O)(Cc1ccccc1)Nc1ccc2[nH]ccc2c1` [derivative IX], the IC50 at aromatase (indole aryl sulfonamide series, ref Fantacuzzi et al., 2020) is 160 nM.
